Reference: patent US12162836B2, “N-acyl-{4-[(4-aryl-phenyl)sulfonylmethyl]piperidine} compounds and their therapeutic use” (Modern Biosciences Limited, priority 2019, dated 2024)

Columns and labels:
CYP2C19 = CYP2C19 (Homo sapiens (Human), UniProt P33261); assay: Human Cytochrome P450 Inhibition Assay (Bactosomes); type: in vitro ADME; details: recombinant Bactosomes, 10 minutes
Description: (§1) The ability of test compounds to inhibit five of the most relevant cytochrome P450 enzymes was measured by determination of the activity of cytochrome P450 enzymes in recombinant cytochrome preparations, called Bactosomes (Cypex Ltd, Dundee, Scotland UK DD2 1 NH), in the presence of a specific probe substrate. Bactosomes are a highly efficient and cost-effective source of recombinant CYP450s which have a higher specific activity of enzyme compared to other sources, such as liver microsomes. […] The following CYP450 isoforms were assayed: CYP1A2, CYP2C9, CYP2C19, CYP2D6 and CYP3A4. The study of CYP450 inhibition potential in Bactosomes is accepted as a valuable model permitting rapid prediction of potential drug-drug interactions in vivo (see, e.g., Weaver et al., 2003).
(§2) Bactosomes were obtained from a commercial source (Cypex, Scotland, UK). Test compounds were incubated with Bactosomes at 6 concentrations. Samples were incubated for 10 minutes, after which the reaction was stopped and the samples analysed by LC-MS/MS Multiple Reaction Monitoring (MRM) for the presence/amount of substrate probe.
(§3) CYP450 enzymes (final protein 75 pmol/mL for CYP1A2; 12.5 pmol/mL for CYP2C19; and 25 pmol/mL for CYP2C9, 2D6 and 3A4), 0.1 M phosphate buffer pH 7.4, probe and test compound (final concentration 50, 15.8, 5, 1.58, 0.5 and 0.158 μM; diluted from 10 mM stock solution to give a final DMSO concentration of 1%) were pre-incubated at 37° C. for 5 minutes. The reaction was initiated by the addition of 20 μL of 10 mM NADPH in phosphate buffer. The final incubation volume was 200 μL. The following control inhibitors were used for each CYP450 inhibition assay: CYP1A2: α-naphthoflavone; CYP2C9: sulfaphenazole; CYP2C19: tranylcypromine; CYP2D6: quinidine; CYP3A4: ketoconazole.
(§4) Each compound was incubated for 10 minutes at 37° C. The reactions were stopped by the addition of methanol (final composition 1:1, aqueous: methanol). The incubation plates were shaken, chilled at […] for 2 hours, and centrifuged at 3500 rpm for 15 minutes at 4° C. to precipitate the protein.

CYP3A4 = CYP3A4 (Homo sapiens (Human), UniProt P08684); assay: as above; type: in vitro ADME; details: recombinant Bactosomes, 10 minutes
Description: as §1, §2, §3, §4

CYP2C9 = CYP2C9 (Homo sapiens (Human), UniProt P11712); assay: as above; type: in vitro ADME; details: recombinant Bactosomes, 10 minutes
Description: as §1, §2, §3, §4

CYP2D6 = CYP2D6 (Homo sapiens (Human), UniProt P10635); assay: as above; type: in vitro ADME; details: recombinant Bactosomes, 10 minutes
Description: as §1, §2, §3, §4

CYP1A2 = CYP1A2 (Homo sapiens (Human), UniProt P05177); assay: as above; type: in vitro ADME; details: recombinant Bactosomes, 10 minutes; read-out: IC50 CYP1A2
Description: as §1, §2, §3, §4

hERG = hERG (Homo sapiens (Human), UniProt Q12809); assay: hERG Ion Channel binding assay (3H astemizole displacement); details: human, membranes of HEK293 cells stably expressing hERG, pH 7.4, probe 3H astemizole (1.5 nM); Tested at 25 μM; displacement of 3H astemizole, hERG-HEK293 membranes
Procedure, shortened: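 Membranes from stably transfected hERG-HEK293 cells incubated with 1.5 nM ³H-astemizole ± test compound in HEPES buffer pH 7.4 (0.1% BSA, 5 mM KCl, 130 mM NaCl) at 25° C for 60 min. Bound ligand measured by filtration and scintillation counting; reported as % displacement (0% none, 100% complete).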

[1] = system: collagen-induced arthritis in DBA/1j mice; assay: Mouse Collagen-Induced Arthritis; type: in vivo; details: 10 mg/kg/day, once daily for 14 days, oral gavage; arthritic index vs control
Description: Seven- to eight-week-old male DBA/1j mice were used for all procedures. Animals were housed in groups of 10, and were maintained at 21° C.±2° C. on a 12-hour light/dark cycle with food and water ad libitum. Complete Freund's adjuvant (CFA) was prepared by emulsifying bovine type II collagen at 4 mg/mL with a 4 mg/mL suspension of Mycobacterium tuberculosis H37Ra in Incomplete Freund's Adjuvant (IFA) (0.85 mL paraffin oil and 0.15 mL mannide monooleate) in a 1:1 (v/v) ratio. All mice were immunised subcutaneously with 200 μg of bovine type II collagen in CFA. 21 days later, all mice were immunised subcutaneously with 100 μg of bovine type II collagen in IFA. The mice started to develop signs and symptoms of arthritis following the ‘booster’ immunisation.
For macroscopic assessment of arthritis, the following signs were monitored in each paw of each mouse three times per week and summed to generate the Arthritic Index (A1) (the maximum A1 for one animal is 16): • 0=no visible effects of arthritis. • 1=oedema and/or erythema of 1 digit. • 2=oedema and/or erythema of 2 digits. • 3=oedema and/or erythema of more than 2 digits. • 4=severe arthritis of entire paw and digits.
Animals were sorted into treatment groups with a mean arthritic index of 2.5 and then dosed once daily for 14 days with compound: by oral gavage for test compounds, or by subcutaneous injection at a dose of 10 mg/kg for the positive control, etanercept. After completion of the experiment, the mice were sacrificed.
The data were analysed by generating an average of the arthritic index across each treatment group. The mean arthritic index was then compared to the arthritic index of control (untreated) animals using the following formula to generate a percentage inhibition of disease.

CYP3A4, sequence (P08684 whole entry): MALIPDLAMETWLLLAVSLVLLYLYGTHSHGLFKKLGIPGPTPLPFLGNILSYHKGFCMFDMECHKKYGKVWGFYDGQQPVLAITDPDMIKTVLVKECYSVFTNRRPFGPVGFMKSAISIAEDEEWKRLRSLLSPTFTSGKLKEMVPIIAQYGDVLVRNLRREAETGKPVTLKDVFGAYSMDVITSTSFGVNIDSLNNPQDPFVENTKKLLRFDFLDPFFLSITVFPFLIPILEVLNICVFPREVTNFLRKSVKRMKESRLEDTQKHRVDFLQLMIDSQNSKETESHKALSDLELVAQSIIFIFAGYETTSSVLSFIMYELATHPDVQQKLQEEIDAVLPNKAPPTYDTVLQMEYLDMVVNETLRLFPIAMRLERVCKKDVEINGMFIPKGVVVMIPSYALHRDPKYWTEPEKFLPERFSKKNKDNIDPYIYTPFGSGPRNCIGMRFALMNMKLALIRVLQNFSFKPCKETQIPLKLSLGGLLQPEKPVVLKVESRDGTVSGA
hERG, sequence (Q12809 whole entry): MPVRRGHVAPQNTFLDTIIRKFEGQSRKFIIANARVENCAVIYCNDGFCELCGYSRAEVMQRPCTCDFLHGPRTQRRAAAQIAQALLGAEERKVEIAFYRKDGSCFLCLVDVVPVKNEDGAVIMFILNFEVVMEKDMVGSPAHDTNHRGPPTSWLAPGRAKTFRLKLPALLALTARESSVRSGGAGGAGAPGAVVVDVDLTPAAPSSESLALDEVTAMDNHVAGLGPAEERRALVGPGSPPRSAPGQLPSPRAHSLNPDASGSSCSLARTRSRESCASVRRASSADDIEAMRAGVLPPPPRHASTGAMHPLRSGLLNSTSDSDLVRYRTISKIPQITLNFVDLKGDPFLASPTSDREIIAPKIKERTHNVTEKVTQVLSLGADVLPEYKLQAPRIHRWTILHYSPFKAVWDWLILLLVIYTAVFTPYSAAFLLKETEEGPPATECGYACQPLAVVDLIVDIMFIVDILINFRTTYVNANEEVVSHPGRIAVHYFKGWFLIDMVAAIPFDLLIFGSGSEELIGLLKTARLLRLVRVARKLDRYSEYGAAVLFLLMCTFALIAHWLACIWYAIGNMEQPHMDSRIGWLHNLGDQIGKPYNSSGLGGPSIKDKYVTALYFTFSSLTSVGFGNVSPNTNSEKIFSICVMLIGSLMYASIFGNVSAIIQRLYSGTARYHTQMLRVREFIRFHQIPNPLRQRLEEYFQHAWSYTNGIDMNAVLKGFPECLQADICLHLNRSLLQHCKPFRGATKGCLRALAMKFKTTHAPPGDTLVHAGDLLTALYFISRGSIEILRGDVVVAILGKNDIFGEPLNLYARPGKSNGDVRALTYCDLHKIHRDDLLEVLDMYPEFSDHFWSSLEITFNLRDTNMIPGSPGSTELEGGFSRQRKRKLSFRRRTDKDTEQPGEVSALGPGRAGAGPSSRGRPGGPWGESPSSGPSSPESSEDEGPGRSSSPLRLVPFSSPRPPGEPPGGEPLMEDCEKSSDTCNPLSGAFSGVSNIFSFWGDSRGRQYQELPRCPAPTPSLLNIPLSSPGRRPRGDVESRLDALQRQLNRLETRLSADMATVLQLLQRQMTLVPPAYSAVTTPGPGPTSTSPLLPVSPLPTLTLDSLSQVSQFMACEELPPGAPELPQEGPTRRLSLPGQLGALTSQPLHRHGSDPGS
CYP1A2, sequence (P05177 whole entry): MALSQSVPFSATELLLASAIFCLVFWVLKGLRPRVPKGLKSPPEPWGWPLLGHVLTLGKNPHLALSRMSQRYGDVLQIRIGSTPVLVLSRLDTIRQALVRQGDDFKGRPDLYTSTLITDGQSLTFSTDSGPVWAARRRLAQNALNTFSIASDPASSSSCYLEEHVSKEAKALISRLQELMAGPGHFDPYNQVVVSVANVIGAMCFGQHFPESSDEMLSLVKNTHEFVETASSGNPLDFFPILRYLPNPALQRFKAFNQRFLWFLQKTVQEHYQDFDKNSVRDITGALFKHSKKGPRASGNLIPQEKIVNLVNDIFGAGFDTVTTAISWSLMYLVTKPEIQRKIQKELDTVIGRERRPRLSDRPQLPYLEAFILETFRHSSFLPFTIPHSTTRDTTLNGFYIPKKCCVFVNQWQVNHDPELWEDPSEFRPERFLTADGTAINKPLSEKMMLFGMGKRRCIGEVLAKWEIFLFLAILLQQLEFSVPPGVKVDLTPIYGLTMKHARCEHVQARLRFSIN
CYP2D6, sequence (P10635 whole entry): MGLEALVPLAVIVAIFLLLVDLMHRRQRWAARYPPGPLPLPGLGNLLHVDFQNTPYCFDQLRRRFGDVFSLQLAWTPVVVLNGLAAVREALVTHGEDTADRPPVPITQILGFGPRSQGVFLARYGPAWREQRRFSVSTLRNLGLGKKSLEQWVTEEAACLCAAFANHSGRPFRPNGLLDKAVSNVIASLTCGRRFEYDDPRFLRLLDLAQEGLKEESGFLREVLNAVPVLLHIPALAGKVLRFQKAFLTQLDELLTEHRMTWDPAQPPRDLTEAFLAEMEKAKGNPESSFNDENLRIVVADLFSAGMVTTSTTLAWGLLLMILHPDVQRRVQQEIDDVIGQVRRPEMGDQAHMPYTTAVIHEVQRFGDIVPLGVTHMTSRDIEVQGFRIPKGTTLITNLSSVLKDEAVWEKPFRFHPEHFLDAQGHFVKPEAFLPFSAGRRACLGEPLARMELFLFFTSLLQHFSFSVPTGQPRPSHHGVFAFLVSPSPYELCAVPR
CYP2C9, sequence (P11712 whole entry): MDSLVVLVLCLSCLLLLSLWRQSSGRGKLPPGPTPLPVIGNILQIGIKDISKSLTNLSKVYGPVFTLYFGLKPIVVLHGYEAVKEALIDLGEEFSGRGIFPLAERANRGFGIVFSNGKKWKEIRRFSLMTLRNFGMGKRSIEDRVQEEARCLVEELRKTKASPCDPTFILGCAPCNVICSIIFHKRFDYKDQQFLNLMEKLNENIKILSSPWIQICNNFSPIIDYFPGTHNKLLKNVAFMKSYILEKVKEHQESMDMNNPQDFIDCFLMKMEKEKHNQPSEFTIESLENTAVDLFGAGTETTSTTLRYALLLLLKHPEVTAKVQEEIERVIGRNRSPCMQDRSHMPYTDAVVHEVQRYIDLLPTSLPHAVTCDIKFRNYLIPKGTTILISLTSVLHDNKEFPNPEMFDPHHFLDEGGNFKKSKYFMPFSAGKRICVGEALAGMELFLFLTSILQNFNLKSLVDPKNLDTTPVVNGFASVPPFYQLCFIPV
CYP2C19, sequence (P33261 whole entry, canonical isoform): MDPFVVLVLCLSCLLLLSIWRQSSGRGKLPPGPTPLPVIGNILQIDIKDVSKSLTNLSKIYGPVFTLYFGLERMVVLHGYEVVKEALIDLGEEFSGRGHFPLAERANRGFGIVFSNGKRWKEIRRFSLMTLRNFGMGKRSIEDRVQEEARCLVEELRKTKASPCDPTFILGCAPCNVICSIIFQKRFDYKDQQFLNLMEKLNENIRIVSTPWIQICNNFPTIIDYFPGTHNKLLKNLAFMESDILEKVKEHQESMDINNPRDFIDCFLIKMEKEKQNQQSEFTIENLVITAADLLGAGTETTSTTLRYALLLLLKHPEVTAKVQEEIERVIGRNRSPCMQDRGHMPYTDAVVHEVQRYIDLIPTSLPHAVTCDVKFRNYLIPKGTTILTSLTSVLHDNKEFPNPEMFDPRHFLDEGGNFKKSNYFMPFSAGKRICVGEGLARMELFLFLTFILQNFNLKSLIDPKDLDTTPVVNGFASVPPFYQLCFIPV

`C[C@]1(O)CC[C@H](NS(=O)(=O)c2ccc(-c3ccc(Cl)cc3C#N)cc2)CC1` [HMC-C-01-A, reference compound] showed an IC50 (CYP2C19) of over 25 µM, an IC50 (CYP3A4) of over 25 µM and an IC50 (CYP2C9) of 21 µM. For the same compound, the IC50 (CYP2D6) was 16.6 µM, the IC50 (CYP1A2) was 25 µM and the inhibition at 60 min, 25 µM (hERG) was 18%. For the same compound, the “% inhibition of disease” value [1] was 40%.
